Test [1] deals with T1, 5-lipoxygenase (Rattus norvegicus, UniProt P12527).
T1 construct: A suspension of rat neutrophils in buffer; endogenous in cells; host or cells: rat neutrophils
T1 sequence (P12527 1-673): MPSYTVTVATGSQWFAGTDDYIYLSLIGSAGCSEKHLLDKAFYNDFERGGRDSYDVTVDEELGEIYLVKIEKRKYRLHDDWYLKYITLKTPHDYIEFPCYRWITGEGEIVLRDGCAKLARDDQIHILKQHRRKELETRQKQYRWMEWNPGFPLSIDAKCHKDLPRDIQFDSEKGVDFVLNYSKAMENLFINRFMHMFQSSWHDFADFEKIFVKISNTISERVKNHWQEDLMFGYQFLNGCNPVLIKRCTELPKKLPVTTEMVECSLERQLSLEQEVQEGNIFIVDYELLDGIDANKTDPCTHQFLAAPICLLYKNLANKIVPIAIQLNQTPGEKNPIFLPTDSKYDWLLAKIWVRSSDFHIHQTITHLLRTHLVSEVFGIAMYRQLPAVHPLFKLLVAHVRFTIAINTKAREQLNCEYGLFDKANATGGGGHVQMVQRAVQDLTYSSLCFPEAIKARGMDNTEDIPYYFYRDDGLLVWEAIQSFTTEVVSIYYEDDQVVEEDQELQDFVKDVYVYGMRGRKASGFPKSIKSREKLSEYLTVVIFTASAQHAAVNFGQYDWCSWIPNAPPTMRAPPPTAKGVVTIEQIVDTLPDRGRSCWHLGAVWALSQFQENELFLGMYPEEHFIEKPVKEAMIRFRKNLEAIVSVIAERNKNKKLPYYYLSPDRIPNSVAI
Description: Inhibition of 5-lipoxygenase (5-HETE formation from [14C]-arachidonic acid in rat neutrophils, Calcium Ionophore A23187). As to conditions: 3 minutes at 30° C.; for IC50: net 5-HETE, read-out: concentration required for inhibition of the 5-lipoxygenase (5-LOX/I50). Format: cell-based. As to the method:
The following protocol describes an assay to detect inhibitors of the lipoxygenase. Such inhibitors are believed to be capable of modulating the biosynthesis of the leukotrienes, a property believed to be useful in treating asthma and inflammatory disease states.
A suspension of rat neutrophils in buffer is incubated for 3 minutes at 30° C. with [^14 C]-arachidonic acid (AA) and Calcium Ionophore A23187. Citric acid (2M) is used to quench the reaction. Following the addition of a trace amount of (^3 H)-5-HETE together with an excess of unlabeled 5-HETE to each tube, the mixture is extracted with chloroform/methanol. The organic layer is washed wth dilute acid and an aliquot is transferred to glass tubes and dried. The residue is dissolved in a small volume of chloroform and an aliquot is spotted on silica gel TLC sheets, which are developed with an ethyl acetate/isooctane/water/acetic acid solvent system. The 5-HETE spots are visualized with iodine, cut out and placed in scintillation vials for counting. After adjusting for the extraction efficiency, the amount (pmole) of [^14 C]-5-HETE in each of the tubes is quantitated. The net pmoles of 5-HETE are obtained by subtracting the pmoles of 5-HETE in the tubes containing buffer alone (blank) from the pmoles of 5-HETE in the tubes containing […]. The ability of the test compounds to modulate the activity of this enzyme is determined by a decrease or increase in the net amount of 5-HETE produced.

Test [2] relates to leukotriene C4-induced contraction of guinea pig peripheral strips. Description: SRS-A antagonists (SALTI): inhibition of leukotriene C4-induced contraction of guinea pig peripheral lung strips. Format: cell-based. Particulars: 0.2 nM leukotriene C4, 37° C.; for IC50: Cavia porcellus, read-out: concentration required for 50% inhibition of leukotriene C4-induced contraction (I50). How it is done: Peripheral strips of guinea pig lungs are prepared and hung in tissue baths (Metro #ME-5505, 10 ml) according to the published procedure (Pro. Nat'l. Acad. Sci., U.S.A. Volume 77, pp. 4354-4358, 1980). The strips are thoroughly rinsed in Assay Buffer and then connected with surgical silk thread to the support rods from the tissue baths. The rods are adjusted in the baths and the strips connected to the pressure transducers (Grass FT 103 or Gould UC-3--. The tissue baths are aerated with 95% oxygen-5% carbon dioxide and maintained at 37° C. The Assay Buffer has been made as follows:
For each liter of buffer the following are added to approximately 800 ml of water distilled in glass: 6.87 g NaCl, 0.4 g KCl, […] NaHCO3, 0.14 g NaH2 PO4 H2 O, 0.21 g MgSO4 7H2 O, and 2.0 g D-glucose. Tehn a solution of 0.368 g CaCl2 2H2 O in 100 ml glass-distilled water is slowly added to the buffer. Sufficient water is added to adjust the volume to one liter, and the solution is aerated with 95% oxygen--5% carbon dioxide. Usually 10 liters of buffer are used for an experiment with 4 tissues.
After the tissues have been repeatedly washed and allowed to equilibrate in the tissue bath, they are challenged with 1 μM histamine. After maximum contractions have been obtained, the tissues are washed, and allowed to relax back to baseline tension. This histamine challenge procedure is repeated at least 1 to 2 more times ot obtain a repeatable control response. The average response to 1 μM histamine for each tissue is used to normalize all other challenges.
Responses of each tissue to a predetermined concentration of leukotriene are then obtained. Usually test compounds are examined initially at 30 μM on resting tension of the tissues without any added agonist or antagonist to determine if the compound has any possible intrinsic activity. The tissues are washed, and the test compound is added again. Leukotriene is added after the desired pre-incubation time. The intrinsic activity of the compounds and their effect on leukotriene-induced contractions are then recorded.
The concentration required for 50% inhibition of 0.2 nM leukotriene C4 -induced contraction of guinea pig peripheral strips for the compounds of the Examples 1 to 6 is as follows: […]

`O=Cc1cccn1-c1cccc(Oc2ccccc2)c1` [Example 1, 1-(3-Phenoxyphenyl)-pyrrole-2-aldehyde]: the “relative activity at 10 μM (5-lipoxygenase inhibition)” value in test [1] is recorded as “medium”. Besides, the IC50 in test [2] was 20 µM. As for `CCCCCC(O)c1cccn1-c1cccc(Oc2ccccc2)c1` (stereo not shown) [Example 3, 2-(1-Hydroxyhexyl)-1-(3-phenoxyphenyl)pyrrole], the IC50 in test [1] was 7 µM. Moreover, the “concentration required for 50% inhibition of leukotriene C4-induced contraction (I50)” value in test [2] is “Inactive”. As for `CCCCCC(O)c1cccn1-c1ccccc1` (stereo not shown) [Example 5, 2-(1-Hydroxyhexyl)-1-phenylpyrrole], the IC50 in test [1] was determined as 20 µM. Also, the “concentration required for 50% inhibition of leukotriene C4-induced contraction (I50)” value in test [2] is reported as “Inactive”.

For the molecule `O=Cc1ccn(-c2cccc(Oc3ccccc3)c2)c1` [Example 2, 1-(3-Phenoxyphenyl)-pyrrole-3-aldehyde], the “relative activity at 10 μM (5-lipoxygenase inhibition)” value in test [1] is given as “medium”. For the same molecule, the IC50 in test [2] is 18 µM. For `CCCCCC(O)c1ccn(-c2cccc(Oc3ccccc3)c2)c1` (stereo not shown) [Example 4, 3-(1-Hydroxyhexyl)-1-(3-phenoxyphenyl)pyrrole], in test [1], the IC50 was determined as 4 µM.

`CCCCCC(O)c1ccn(-c2ccccc2)c1` (stereo not shown) [Example 6, 3-(1-Hydroxyhexyl)-1-phenylpyrrole]: in test [1], the “relative activity at 10 μM (5-lipoxygenase inhibition)” value is on record as “medium”.
